Reference: PubChem BioAssay AID504672 (Sanford-Burnham Center for Chemical Genomics, 2011)

The compounds below were run on S. cerevisiae tim10 strain, luminescence counterscreen (assay: signal inhibition in TIM10 yeast counter-screen, dose response, counter-screen for tim23-1 inhibitor project, luminescence, S. cerevisiae, uHTS hits (AID 504672);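 note: yeast grew roughly 22 hours at 25 °C before the luminescence read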).

Row | Compound | IC50 [µM]
1 | C[C@@]12C(=O)Nc3ccc(Br)cc3C(=O)N1[C@H]1c3ccccc3OC[C@@H]1[C@@H]2c1ccccc1 | 3.81
2 | O=C(N/N=C/c1ccc(Br)s1)c1cccs1 | 22.9
3 | O=C(c1cccnc1)C1Cc2ccccc2C1=O (configuration not stated) | 27.8
4 | CC(C(Sc1ccccc1N)c1ccccc1)[N+](=O)[O-] (configuration not stated) | 5.26
5 | CCOC(=O)c1cccc(OC(=O)CCNC(=O)c2ccc(Cl)cc2)c1 | 26.9
6 | Cc1ccc(-c2nnc(N3CCN(c4ccccn4)CC3)c3ccccc23)cc1 | 13.1
7 | Cc1cccc(OCCN2C(=O)C(=O)c3cc(C)ccc32)c1 | 11.6
8 | COc1ccc(C(=O)Nc2nc3ccccc3s2)c(OC)c1 | 7.13
9 | Cc1ccc2oc(C(Cl)(Cl)Cl)cc(=O)c2c1 | 8.7
10 | CC1c2[nH]c3ccccc3c2CCN1C(=O)Nc1ccccc1 (configuration not stated) | 14
11 | Cc1nc2ccccc2n1/N=C/c1ccc([N+](=O)[O-])s1 | 2.14
12 | O=C1/C(=C/c2cccs2)COc2ccccc21 | 7.66
13 | CCC(C)c1ccc(NC(=O)C2CC3CCC2C3)cc1 (configuration not stated) | 19.4
14 | COc1cccc2c1C(=O)C=C(C)C2=O | 13.2
15 | Cc1ccc(-c2nc(CNC(=O)c3cc(C)on3)cs2)cc1 | 19.8
16 | O=CN(/C=C1\Sc2ccccc2C1=O)Cc1ccccc1 | 15.5
17 | Cc1csc2nc(O)c(C(=O)NCCCc3ccccc3)c(=O)n12 | 8.44
18 | COc1ccccc1C(=O)Nc1nnc(-c2ccc3c(c2)CCCC3)o1 | 14.7
19 | O=C(Nc1ccc(Nc2ccccc2)cc1)c1ccc(Cl)c([N+](=O)[O-])c1 | 10.8
20 | COc1ccc(C(=O)N/N=C\c2coc3ccc(Cl)cc3c2=O)cc1 | 32.5
21 | C=C1CCc2c([nH]c3ccc(OCC(C)C)cc23)C1=O | 24.3

Row | Compound | IC50 [µM]
22 | CCOC(=O)c1ccc(NC(=O)CSc2nc(=O)n3cccc(C)c3n2)cc1 | 53.6
23 | CC1(C)CC(n2c(NCCO)nc3c(c2=O)C2(CCCC2)Cc2ccccc2-3)CCO1 (configuration not stated) | 12.4
24 | O=Cc1cccnc1SCc1ccccc1 | 12.1
25 | CCc1ccc2oc(-c3cc(N)ccc3Cl)nc2c1 | 17
26 | O=C(N/N=C/C(Br)=C/c1ccccc1)c1ccccc1F | 15.5
27 | O=[N+]([O-])c1cc(O)c2ncccc2c1 | 7.75
28 | Cc1ccc(Nc2nc(Cl)c(C=O)s2)cc1Cl | 3.45
29 | O=c1c2ccccc2nc(-c2ccc([N+](=O)[O-])cc2)n1O | 4.86
30 | O=C(CSc1cccs1)Nc1ccc2ccccc2c1 | 24.4
31 | Cc1ccc2c(c1)C(=O)N1[C@H]3c4ccccc4OC[C@@H]3[C@H](c3ccccc3)[C@]1(C)C(=O)N2 | 3.54
32 | COc1cc(C(=O)N/N=C/c2coc3ccc(Cl)cc3c2=O)ccc1O | 6.59
33 | CC1(C)OC(=O)C(=Cc2ccc[nH]2)C(=O)O1 | 7.41
34 | O=c1/c(=C/c2cccc3ccccc23)sc2ncnn12 | 16.7
35 | OCCOCCNc1ncnc2c1c(-c1ccccc1)cn2-c1ccccc1 | 11.7
36 | CO/C(N)=C(\C#N)N=Cc1ccccc1Cl | 77.2
37 | CCc1ccc(NC(=O)/C(C#N)=C/c2ccncc2)cc1 | 12.6
38 | O=C(Nc1ccc2c(c1)OCCO2)c1cccc(Cl)c1 | 21.5
39 | Cc1[nH][nH]c(=O)c1C(c1ccc(-c2ccc(F)cc2)o1)c1c(C)[nH][nH]c1=O | 16.3
40 | Cc1ccc(S(=O)(=O)N[C@@H](Cc2ccccc2)C(=O)CCl)cc1 | 0.64
41 | c1ccc(-c2nc(NCc3cccs3)c3ccccc3n2)cc1 | 14.3
42 | COC(=O)c1ccc(C(=O)OC)c(NC(=O)CSc2cccc[n+]2[O-])c1 | 10.6

Row | Compound | IC50 [µM]
43 | Cc1ccc(SCC(=O)OCn2nnc3ccccc3c2=O)cc1C | 15.6
44 | O=C(NCCCc1ccccc1)Nc1cccc(Cl)c1 | 5.13
45 | COc1ccc(CCN(/C=C2\Sc3ccccc3C2=O)C(C)=O)cc1OC | 26.3
46 | CC(C)Oc1cc(O)c2c(=O)c(-c3ccc(O)cc3)coc2c1 | 10.1
47 | c1ccc(N=Nc2cn[nH]c2-c2ccco2)cc1 | 20.8
48 | COn1c(=O)c(-c2cccs2)[n+]([O-])c2ccccc21 | 6.58
49 | COc1cc(OC)cc(C(=O)Nc2ccc(Nc3ccccc3)cc2)c1 | 27.3
50 | Cc1ccn(-c2ccc(NC(=O)c3cccs3)cc2)n1 | 5.12
51 | c1cnc2c(c1)ccc1cccnc12 | 12.3
52 | O=C(Nc1ccc(-c2cn3c(n2)SCC3)cc1)c1ccco1 | 38.3
53 | COc1cc(/C=N/NC(=O)c2ccc(N)cc2)ccc1OC(=O)c1cccc(C)c1 | 7.44
54 | COCCNC(=O)/C(C#N)=C/c1ccc(OCc2ccccc2)cc1 | 16.6
55 | O=C(Nc1ccc2nc(-c3ccc(Br)o3)[nH]c2c1)c1cccs1 | 51
56 | O=C(Nc1ccc2nc(-c3ccccc3)[nH]c2c1)c1cccs1 | 3.08
57 | Cc1nc2ccccc2c(=O)n1/N=C/c1cc(Br)ccc1O | 10.8
58 | O=c1c(O)c(-c2ccccc2)oc2cc(O)cc(O)c12 | 35.5
59 | N#C/C(C(N)=O)=c1/ccc2c(c1)N1C3=C(CCCC3)CC3CCCCC31N=2 (configuration not stated) | 8.55
60 | Cc1cccc(C(=O)Oc2cccc3c(O)cccc23)c1 | 8.12
61 | O=C(COc1ccccc1)N/N=C/c1ccc([N+](=O)[O-])o1 | 10.8
62 | Cc1ccc(CS(=O)(=O)c2ncc(Cl)c(C(=O)Nc3ccc(OC(F)F)cc3)n2)cc1 | 5.88
